Experimental data as given in patent US9168259B2 (GRÜNENTHAL GMBH, priority 2010, dated 2015).

Target: T1, KCNQ2/3 channels (Homo sapiens, UniProt O43525+O43526)
T1 construct: expressed in transfected cells
Experiment: Fluorescence assay using a voltage sensitive dye (fluorimetry)
Format: cell-based
Settings: CHO-K1 cells expressing KCNQ2/3; for Emax: CHO-K1, plateau effect relative to saturated retigabine (50 μM) = 100%, negative values = antagonistic, read-out: Fluorimetry % efficacy (retigabine = 100%); for EC50: IC50 where % efficacy is negative, read-out: Fluorimetry EC50/IC50

T1 sequence (O43526 whole entry): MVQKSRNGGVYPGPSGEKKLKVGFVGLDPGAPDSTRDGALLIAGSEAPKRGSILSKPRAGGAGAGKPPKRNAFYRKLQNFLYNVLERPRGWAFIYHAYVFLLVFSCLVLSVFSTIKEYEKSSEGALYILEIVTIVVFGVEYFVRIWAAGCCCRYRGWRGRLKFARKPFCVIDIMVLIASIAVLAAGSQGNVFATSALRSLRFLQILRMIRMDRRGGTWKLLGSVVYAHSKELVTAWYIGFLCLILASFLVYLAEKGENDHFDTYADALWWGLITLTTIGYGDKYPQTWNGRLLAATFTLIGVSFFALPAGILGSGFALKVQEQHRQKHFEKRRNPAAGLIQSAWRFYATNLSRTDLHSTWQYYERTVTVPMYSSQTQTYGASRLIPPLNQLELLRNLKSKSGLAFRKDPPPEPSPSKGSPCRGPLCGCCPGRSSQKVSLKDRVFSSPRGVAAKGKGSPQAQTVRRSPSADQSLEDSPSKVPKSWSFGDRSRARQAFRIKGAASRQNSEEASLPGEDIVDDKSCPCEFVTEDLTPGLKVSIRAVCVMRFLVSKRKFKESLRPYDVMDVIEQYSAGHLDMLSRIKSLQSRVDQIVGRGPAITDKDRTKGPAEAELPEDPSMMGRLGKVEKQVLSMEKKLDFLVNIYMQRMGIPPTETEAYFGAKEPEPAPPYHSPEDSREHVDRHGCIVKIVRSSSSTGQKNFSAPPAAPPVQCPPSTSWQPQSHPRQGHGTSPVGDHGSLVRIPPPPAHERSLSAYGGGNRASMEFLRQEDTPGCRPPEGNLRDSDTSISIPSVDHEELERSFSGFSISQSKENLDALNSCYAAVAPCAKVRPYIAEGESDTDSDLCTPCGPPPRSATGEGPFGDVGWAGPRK
T1 sequence (O43525 whole entry): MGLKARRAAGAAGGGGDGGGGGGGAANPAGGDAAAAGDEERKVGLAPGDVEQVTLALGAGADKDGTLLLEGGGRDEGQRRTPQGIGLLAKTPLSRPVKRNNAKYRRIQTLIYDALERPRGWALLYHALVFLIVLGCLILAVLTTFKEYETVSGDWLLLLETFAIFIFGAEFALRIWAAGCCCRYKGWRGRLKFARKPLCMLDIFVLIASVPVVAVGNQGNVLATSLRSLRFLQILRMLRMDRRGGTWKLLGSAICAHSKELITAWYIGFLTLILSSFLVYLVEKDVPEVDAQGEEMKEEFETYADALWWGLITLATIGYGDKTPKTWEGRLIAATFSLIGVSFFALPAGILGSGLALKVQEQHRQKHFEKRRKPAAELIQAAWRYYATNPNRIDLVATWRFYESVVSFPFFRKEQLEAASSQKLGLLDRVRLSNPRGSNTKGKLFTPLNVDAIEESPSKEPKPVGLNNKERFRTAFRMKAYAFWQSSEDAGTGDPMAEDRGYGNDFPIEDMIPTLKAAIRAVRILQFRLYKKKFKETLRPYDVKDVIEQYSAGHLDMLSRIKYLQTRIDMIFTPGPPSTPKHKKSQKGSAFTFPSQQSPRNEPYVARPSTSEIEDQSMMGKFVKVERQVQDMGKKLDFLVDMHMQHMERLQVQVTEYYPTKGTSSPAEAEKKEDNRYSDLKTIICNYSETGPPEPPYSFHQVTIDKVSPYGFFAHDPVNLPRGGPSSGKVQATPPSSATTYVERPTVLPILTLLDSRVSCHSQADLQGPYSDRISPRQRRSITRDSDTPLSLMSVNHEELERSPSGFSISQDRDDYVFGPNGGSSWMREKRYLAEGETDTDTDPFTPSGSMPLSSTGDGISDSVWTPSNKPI

Emax [%]	EC50 [µM]	SMILES
124	0.291	CCSc1nc(N(CCOC)Cc2ccc(F)cc2)cc(C)c1C(=O)NCc1cccc(F)c1 [Example 342, 2-Ethylsulfanyl-N-[(3-fluorophenyl)-methyl]-6-[(4-fluorophenyl)-methyl-(2-methoxy-ethyl)-amino]-4-methyl-pyridine-3-carboxylic acid amide]
174	0.097	CCSc1nc(N2CCOC[C@H]2C)cc(C)c1C(=O)NCc1ccc(F)cc1 [Example 177, 2-Ethylsulfanyl-N-[(4-fluorophenyl)-methyl]-4-methyl-6-[(3R)-3-methyl-morpholin-4-yl]-pyridine-3-carboxylic acid amide]
132	0.719	CCSc1nc(N2CCOC(CCOC)C2)cc(C)c1C(=O)NCc1cccc(F)c1 (stereo not shown) [Example 229, 2-Ethylsulfanyl-N-[(3-fluorophenyl)-methyl]-6-[2-(2-methoxy-ethyl)-morpholin-4-yl]-4-methyl-pyridine-3-carboxylic acid amide]
205	0.898	Cc1cc(N2CCOCC2)nc(N(C)C)c1C(=O)NCc1ccc(F)cc1 [Example 205, 2-Dimethylamino-N-[(4-fluorophenyl)-methyl]-4-methyl-6-morpholin-4-yl-pyridine-3-carboxylic acid amide]
137	3.66	CCSc1nc(N2CCO[C@@H](COC)C2)cc(C)c1C(=O)NCc1cccc(F)c1 [Example 223, 2-Ethylsulfanyl-N-[(3-fluorophenyl)-methyl]-6-[(2R)-2-(methoxymethyl)-morpholin-4-yl]-4-methyl-pyridine-3-carboxylic acid amide]
118	0.489	COCc1cc(CNC(=O)c2c(C)cc(N3CCOCC3)nc2C2CC2)ccc1F [Example 351, 2-Cyclopropyl-N-[[4-fluoro-3-(methoxymethyl)-phenyl]methyl]-4-methyl-6-morpholin-4-yl-pyridine-3-carboxylic acid amide]
142	0.286	CCSc1nc(N2CCOCC2)cc(C)c1C(=O)NCc1ccc(C#N)c(F)c1 [Example 268, N-[(4-Cyano-3-fluoro-phenyl)-methyl]-2-ethylsulfanyl-4-methyl-6-morpholin-4-yl-pyridine-3-carboxylic acid amide]
246	0.029	CCSc1nc(N2CCOC[C@H]2C)cc(C)c1C(=O)NCCCC(C)(C)C [Example 193, N-(4,4-Dimethyl-pentyl)-2-ethylsulfanyl-4-methyl-6-[(3R)-3-methyl-morpholin-4-yl]-pyridine-3-carboxylic acid amide]
152	0.274	CCSc1nc(N2CCOCC2CCOC)cc(C)c1C(=O)NCc1cccc(F)c1 (stereo not shown) [Example 340, 2-Ethylsulfanyl-N-[(3-fluorophenyl)-methyl]-6-[3-(2-methoxy-ethyl)-morpholin-4-yl]-4-methyl-pyridine-3-carboxylic acid amide]
131	12.9	CCSc1nc(N2CCOCC2)cc(C)c1C(=O)NCCCC(C)(C)CO [Example 230, 2-Ethylsulfanyl-N-(5-hydroxy-4,4-dimethyl-pentyl)-4-methyl-6-morpholin-4-yl-pyridine-3-carboxylic acid amide]
195	0.124	COc1nc(N2CCOC[C@H]2C)cc(C)c1C(=O)NCc1cc(F)cc(F)c1 [Example 234, N-[(3,5-Difluoro-phenyl)-methyl]-2-methoxy-4-methyl-6-[(3R)-3-methyl-morpholin-4-yl]-pyridine-3-carboxylic acid amide]
84	1.24	CCSc1nc(N(C)c2ccccn2)cc(C)c1C(=O)NCc1cccc(F)c1 [Example 170, 2-Ethylsulfanyl-N-[(3-fluorophenyl)-methyl]-4-methyl-6-(methyl-pyridin-2-yl-amino)-pyridine-3-carboxylic acid amide]
246	0.019	Cc1cc(N2CCOC[C@H]2C)nc(C2CC2)c1C(=O)NCCCC(C)(C)C [Example 198, 2-Cyclopropyl-N-(4,4-dimethyl-pentyl)-4-methyl-6-[(3R)-3-methyl-morpholin-4-yl]-pyridine-3-carboxylic acid amide]
183	0.43	CCSc1nc(N2CCOCC2)cc(OC)c1C(=O)NCc1cccc(F)c1 [Example 336, 2-Ethylsulfanyl-N-[(3-fluorophenyl)-methyl]-4-methoxy-6-morpholin-4-yl-pyridine-3-carboxylic acid amide]
173	0.05	Cc1cc(N2CCOCC2)nc(C(C)C)c1C(=O)NCc1ccc(Cl)cc1 [Example 327, N-[(4-Chlorophenyl)-methyl]-2-isopropyl-4-methyl-6-morpholin-4-yl-pyridine-3-carboxylic acid amide]
153	0.971	CCSc1nc(N2CCOCC2)cc(C)c1C(=O)NCc1ccc(OC)c(F)c1 [Example 287, 2-Ethylsulfanyl-N-[(3-fluoro-4-methoxy-phenyl)-methyl]-4-methyl-6-morpholin-4-yl-pyridine-3-carboxylic acid amide]
125	1.82	CCSc1nc(N2CC(COC)C2)cc(C)c1C(=O)NCc1cccc(F)c1 [Example 239, 2-Ethylsulfanyl-N-[(3-fluorophenyl)-methyl]-6-[3-(methoxymethyl)-azetidin-1-yl]-4-methyl-pyridine-3-carboxylic acid amide]
197	0.103	Cc1cc(N2CCOC[C@H]2C)nc(C2CC2)c1C(=O)NCc1ccc(F)cc1 [Example 196, 2-Cyclopropyl-N-[(4-fluorophenyl)-methyl]-4-methyl-6-[(3R)-3-methyl-morpholin-4-yl]-pyridine-3-carboxylic acid amide]

The next lines start with the compound.

SMILES	Emax [%]	EC50 [µM]
CCSc1nc(N2CCc3cc(C(F)(F)F)ccc3C2)cc(C)c1C(=O)NCc1cccc(F)c1 [Example 27, 2-Ethylsulfanyl-N-[(3-fluorophenyl)-methyl]-4-methyl-6-[6-(trifluoromethyl)-1,2,3,4-tetrahydro-isoquinolin-2-yl]pyridine-3-carboxylic acid amide]	132	0.151
CCSc1nc(N2CCOCC2)cc(C)c1C(=O)NCc1cccc(C)c1 [Example 164, 2-Ethylsulfanyl-4-methyl-6-morpholin-4-yl-N-(m-tolyl-methyl)-pyridine-3-carboxylic acid amide]	122	0.237
CCSc1nc(N2CCOCC2)cc(C)c1C(=O)NCc1ccc(F)cc1O [Example 18, 2-Ethylsulfanyl-N-[(4-fluoro-2-hydroxy-phenyl)methyl]-4-methyl-6-morpholin-4-yl-pyridine-3-carboxylic acid amide]	224	0.098
CCSc1nc(N(C)CC2CCOCC2)cc(C)c1C(=O)NCc1cccc(F)c1 [Example 61, 2-Ethylsulfanyl-N-[(3-fluorophenyl)-methyl]-4-methyl-6-[methyl-(tetrahydro-pyran-4-yl-methyl)-amino]-pyridine-3-carboxylic acid amide]	110	0.528
CCSc1nc(N2CCOCC2)cc(C)c1C(=O)NCc1cccc(OC(F)(F)F)c1 [Example 130, 2-Ethylsulfanyl-4-methyl-6-morpholin-4-yl-N-[[3-(trifluoromethyloxy)-phenyl]methyl]-pyridine-3-carboxylic acid amide]	148	0.074
CCOc1nc(N2CCOCC2)cc(C)c1C(=O)NCc1ccc(Cl)cc1 [Example 166, N-[(4-Chlorophenyl)-methyl]-2-ethoxy-4-methyl-6-morpholin-4-yl-pyridine-3-carboxylic acid amide]	134	0.117
CCc1nc(N2CCOCC2)cc(C)c1C(=O)NCc1cccc(F)c1 [Example 22, 2-Ethyl-N-[(3-fluorophenyl)-methyl]-4-methyl-6-morpholin-4-yl-pyridine-3-carboxylic acid amide]	166	0.79
CCSc1nc(NCCOC)cc(C)c1C(=O)NCc1cccc(F)c1 [Example 36, 2-Ethylsulfanyl-N-[(3-fluorophenyl)-methyl]-6-(2-methoxy-ethylamino)-4-methyl-pyridine-3-carboxylic acid amide]	125	6
CSc1nc(N2CCOCC2)cc(C)c1C(=O)NCCCC(C)(C)C [Example 152, N-(4,4-Dimethyl-pentyl)-4-methyl-2-methylsulfanyl-6-morpholin-4-yl-pyridine-3-carboxylic acid amide]	249	0.063
CCSc1nc(N2CCOCC2)cc(C)c1C(=O)NCCCC1CCCC1 [Example 105, N-(3-Cyclopentyl-propyl)-2-ethylsulfanyl-4-methyl-6-morpholin-4-yl-pyridine-3-carboxylic acid amide]	207	0.179
CCSc1nc(N2CCC(C)(C)CC2)cc(C)c1C(=O)NCc1cccc(F)c1 [Example 74, 6-(4,4-Dimethyl-piperidin-1-yl)-2-ethylsulfanyl-N-[(3-fluorophenyl)-methyl]-4-methyl-pyridine-3-carboxylic acid amide]	70	0.702
CCSc1nc(N2CCOCC2)cc(C)c1C(=O)NCCCc1cccc(F)c1 [Example 113, 2-Ethylsulfanyl-N-[3-(3-fluorophenyl)-propyl]-4-methyl-6-morpholin-4-yl-pyridine-3-carboxylic acid amide]	192	0.212
CCSc1nc(N2CCOCC2)cc(C)c1C(=O)NCCC(C)(C)C [Example 104, N-(3,3-Dimethyl-butyl)-2-ethylsulfanyl-4-methyl-6-morpholin-4-yl-pyridine-3-carboxylic acid amide]	100	1.4
CCSc1nc(N2CCOCC2)cc(C)c1C(=O)NCCc1ccccc1 [Example 54, 2-Ethylsulfanyl-4-methyl-6-morpholin-4-yl-N-phenethyl-pyridine-3-carboxylic acid amide]	103	2.12
